Measurements taken from PMC9168903, “Crystal Structures of Arabidopsis thaliana GDP-D-Mannose Pyrophosphorylase VITAMIN C DEFECTIVE 1” (Frontiers in Plant Science, 2022).
Several values for one entry are separate records, joined by “and”; a condition that tells them apart may be missing. Equal entries are not always repeated.

Experiments:
[1] = molecular target: T1, VTC1 (Arabidopsis thaliana, UniProt O22287); test: X-ray crystal structure, […] Å; type: binding
T1 construct: gene CYT1; full-length recombinant, 41 kDa; dimer, tetramer and aggregate in SEC
T1 sequence (O22287 1-361): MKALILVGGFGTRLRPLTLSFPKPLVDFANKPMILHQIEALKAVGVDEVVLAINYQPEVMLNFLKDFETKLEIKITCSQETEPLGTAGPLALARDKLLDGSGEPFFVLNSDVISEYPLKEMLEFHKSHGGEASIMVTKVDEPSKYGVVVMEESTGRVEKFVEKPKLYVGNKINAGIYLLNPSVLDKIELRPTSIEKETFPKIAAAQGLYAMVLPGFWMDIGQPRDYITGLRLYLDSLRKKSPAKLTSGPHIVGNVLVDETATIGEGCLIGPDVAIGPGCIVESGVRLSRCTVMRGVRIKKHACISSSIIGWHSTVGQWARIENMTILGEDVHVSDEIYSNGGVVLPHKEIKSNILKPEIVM

[2] = molecular target: T2, VTC1ΔC (Arabidopsis thaliana, UniProt O22287); test: GMPase assay, malachite green phosphate release after pyrophosphatase; type: biochemical; conditions: 0.2 mM Man-1-P, 0.2 mM GTP, 1 mM MgCl2, 1 mM DTT, 50 mM Tris-HCl pH 7.5, 37 °C, 0.2 μM enzyme
T2 construct: gene CYT1; truncation lacking the C-terminal 139 residues (LβH domain region removed); catalytic domain; recombinant, purified as full-length VTC1

[3] = molecular target: the molecule itself; test: SEC; HiLoad 16/60 Superdex 200 column; purified recombinant VTC1; three peaks compared with protein standards
[4] = molecular target: the molecule itself; test: crystal structure; product-bound VTC1 (GDP-Man, PPi, citrate), 3.0 Å, space group R32, two dimers in the asymmetric unit, threefold symmetry

Nc1nc2c(ncn2[C@@H]2O[C@H](COP(=O)(O)OP(=O)(O)O[C@H]3O[C@H](CO)[C@@H](O)[C@H](O)[C@@H]3O)[C@@H](O)[C@H]2O)c(=O)[nH]1 [GDP-D-mannose]
X-ray crystal structure, 3.0 Å ([1]; active site of catalytic domain, bound in middle protomer, citrate also bound): The product GDP-Man binds at the edge of the central β-sheet (Figure 4C).

Nc1nc2c(ncn2[C@@H]2O[C@H](COP(=O)(O)OP(=O)(O)OP(=O)(O)O)[C@@H](O)[C@H]2O)c(=O)[nH]1 [GTP]
GMPase assay, malachite green phosphate release after pyrophosphatase [2]: VTC1ΔC retained, but only ca. one third of the GMPase activity

O=P(O)(O)OP(=O)(O)O [inorganic pyrophosphate]
X-ray crystal structure, 3.0 Å ([1]; catalytic domain, β1–η1 loop, bound in inner and outer protomers, same site as citrate): the inner and outer protomers each bind a PPi

O=P(O)(O)O[C@H]1O[C@H](CO)[C@@H](O)[C@H](O)[C@@H]1O [D-mannose-1-phosphate]
GMPase assay, malachite green phosphate release after pyrophosphatase [2]: VTC1ΔC retained, but only ca. one third of the GMPase activity

B1: Arabidopsis thaliana GDP-D-mannose pyrophosphorylase VITAMIN C … 1 (enzyme, UniProt O22287 1-361, looked up)
chain: T1 sequence (O22287 1-361)
notes: VTC1 (GDP-D-mannose pyrophosphorylase), Arabidopsis thaliana, full-length; recombinant protein stated to have a molecular weight of 41 kDa; also called VTC1; GMPase; source: recombinant, purified (SEC on HiLoad 16/60 Superdex 200); production described previously (Zhao and Liu, 2016)
stoichiometry N [3]: 2 and 4 | stoichiometry N [4]: 12
